Test results: patent US4886750A, “Process for the preparation of a pharmaceutically active compound in a stereospecific form of the formula” (priority 1986, dated 1989)

Legend:
[1] = target: T1, E. coli pNAPT-7 cell lysate (Bacillus subtilis, UniProt Q59248); assay: hydrolysis of ester substrates by E. coli pNAPT-7 cell lysate (Example 13); format: biochemical, Bacillus subtilis Thai I-8; details: for enzyme activity on substrate: 25° C., 0.1 MOPS pH 7.5, 0.3 mg ester/ml, 2% Tween, 1 mg/ml BSA, 2 hours
T1 construct: ammonium sulphate-precipitated, ultrafiltered lysate; about 31 kDa, untagged wild type
T1 sequence (Q59248 entry or part of it): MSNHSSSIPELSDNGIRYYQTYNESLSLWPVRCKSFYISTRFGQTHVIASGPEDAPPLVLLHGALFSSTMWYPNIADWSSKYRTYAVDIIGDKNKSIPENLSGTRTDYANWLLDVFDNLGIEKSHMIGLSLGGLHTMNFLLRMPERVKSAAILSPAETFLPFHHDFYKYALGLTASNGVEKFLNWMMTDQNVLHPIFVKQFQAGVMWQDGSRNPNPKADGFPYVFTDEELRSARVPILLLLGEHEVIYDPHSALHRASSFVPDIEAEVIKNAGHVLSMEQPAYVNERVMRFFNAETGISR
Method: The E. coli pNAPT-7 cell lysate after ammonium sulphate precipitation and ultrafiltration was tested on the hydrolysis of the ethyl ester of R and S-ibuprofen.
The enzyme activity was assayed at 25° C. in 0.1 MOPS buffer pH 7.5 with 0.3 mg of R or S-ibuprofen ethyl ester/ml, 2% Tween and 1 mg/ml BSA. After 2 hours incubation the reaction was stopped by the addition of acetonitrile.
The reaction mixture was analyzed on a HPLC-reversed phase column (Chrompack Polygosil 60D-10CN, 250×4.6 mm), eluted with 34% acetonitrile, 0.05M phosphoric acid pH 3.0 at a flow rate of 1.5 ml/min. Retention times for R and S-ibuprofen and the ethyl ester of R and S-ibuprofen were 5.98 minutes and 11.08 minutes respectively.

[2] = S-enantiomer vs antipode; cited from earlier work

| SMILES | enzyme activity on substrate [1] [u/l] | S-specificity ([1]; Table 12, ibuprofen ethyl ester) [%] | hydrolysis relative to the hydrolysing activity of the methyl ester of S-naproxen ([1]; tested under the same conditions) [%] | in vitro anti-inflammatory activity of the S-enantiomer relative to its antipode [2] |
| --- | --- | --- | --- | --- |
| CCOC(=O)[C@H](C)c1ccc(CC(C)C)cc1 [R-ibuprofen ethyl ester, ethyl 2-(4-isobutyl-1-phenyl) propionate] | 1865 | – | – | – |
| CCOC(=O)[C@@H](C)c1ccc(CC(C)C)cc1 [S-ibuprofen ethyl ester, ethyl 2-(4-isobutyl-1-phenyl) propionate] | 39600 | 95.3 | 60 | – |
| COC(=O)[C@@H](C)c1ccc2cc(OC)ccc2c1 [S-naproxen methyl ester, methyl 2-(6-methoxy-2-naphthyl) propionate] | 65000 | – | – | – |
| CC(C)Cc1ccc([C@H](C)C(=O)O)cc1 [ibuprofen, 2-(4-isobutyl-1-phenyl) propionic acid] | – | – | – | up to 150 times |
| COc1ccc2cc([C@H](C)C(=O)O)ccc2c1 [naproxen, 2-(6-methoxy-2-naphthyl) propionic acid] | – | – | – | up to 150 times |
